# Results as given in patent US20080161398A1, “STIMULATION OF IN VIVO PRODUCTION OF PROTEINS” (Nutricia N.V., priority 2002, published 2008).
# Test system: mixed muscle protein synthesis
# Assay: Fractional synthetic rate of mixed muscle protein synthesis in anaesthetized rats after intravenous infusion of amino acid compositions
# Format: in vivo
# Experimental: Four groups of anaesthetized rats were given an amino acid composition. The same total amount of amino acids was given to each group by intravenous infusion. A fifth group was added to the study as a control group. The first group was given a balanced mixture of amino acids, commercially available under the trade name Travasol. This mixture contains less than 5% leucine. The second group was given 75% of Travasol and 25% of leucine. The third group was given 65% of Travasol and 35% of leucine, and the fourth group was given only leucine. The in fractional synthetic rate of mixed muscle protein synthesis (FSR (%/h)) was measured as described by Ferrando et al., Am. J. Physiol., 275:E864-E871, 1998, the contents of which are incorporated herein by reference.
smiles,measurement,setting,value
"CC(C)C[C@H](N)C(=O)O [Leucine alone, leucine]",response in protein production,"administration of L-leucine alone, as shown in the appended examples",does not induce the desired response in protein production
same,"FSR (%/h), fractional synthetic rate of mixed muscle protein synthesis","anaesthetized rats, intravenous infusion, same total amount of amino acids given to each group",0.0767 ± 0.0204 %/h
